Data set [1] deals with three melanoma and three non-small cell lung cancer lines. The data set can be described thus: 3H-thymidine incorporation, melanoma and lung cancer lines. The conditions noted are these: 24 hours; C646 10 μM, Lys-CoA-Tat 25 μM. It counts as cell-based, human. The source says: The following cell lines were used: WM35 (melanoma), WM983A (melanoma), 1205Lu (melanoma), H23 (NSCLC), H838 (NSCLC), and H1395 (NSCLC). Melanoma cells were maintained in Dulbecco's Modified Eagle Medium. NSCLCs were maintained in RPMI Medium 1640. Both types of media were supplemented with 10% fetal bovine serum (FBS), penicillin-streptomycin, and L-glutamine. Media, pen-strep, and L-glutamine were purchased from Invitrogen. FBS was purchased from Gemini Bio-Products (#100106). […] Compound stocks (10-20 mM in anhydrous DMSO) were directly added to culture media at desired concentrations. DMSO concentration was kept constant at 0.2% between different treatment conditions. Cells were seeded in 96-well plates at ˜5000 cells per well on average, depending on each cell line's doubling time. After attachment, cells were treated with p300 inhibitors, control compounds, or DMSO for 24 h. After treatment, ^3H-thymidine (1 mCi/ml stock) was added to media at 10 μCi/ml final concentration. Cells were incubated for an additional 5 hours, then trypsinized and collected onto a filter mat using a Cell Harvester (PerkinElmer). Radioactivity was measured with a MicroBeta plate reader (PerkinElmer). Each sample was tested in triplicate.
A general note: Dividing cells build labelled thymidine or BrdU into new DNA.

Data set [2] in a line: reaction with beta-mercaptoethanol (absorbance spectrum). It counts as physicochemical. The conditions noted are these: 10 mM beta-mercaptoethanol, up to one hour.
For another data set, the target named is T1, Sas2/4/5 complex (Saccharomyces cerevisiae, UniProt P40963).
T1 construct: made in house; host or cells: E. coli BL21-CodonPlus(DE3)-RIL
The data set can be described thus: SAS complex direct radioactive HAT assay. Format: biochemical. The settings on record: 10 μM compound; read-out: Percent inhibition of acetyltransferase, Sas. As to the method:
(§1) PCAF reactions were performed in 100 mM HEPES, pH 7.9, and contained 200 μM TPP, 5 mM MgCl2, 1 mM DTT, 50 mM NaCl, 0.05 mg/mL BSA, 200 μM NAD, 2.4 mM α-KG, 30 μM acetyl-CoA, 0.037 units α-KGDH, 3.3% DMSO, and 10 μM inhibitor. Reactions took place at 30° C. Reactions were initiated by addition of 10 nM PCAF and were followed at 340 nm over the linear portion of the curve below 10% turnover. AANAT reactions were performed in 100 mM NH4 OAc, pH 6.8, and contained 200 μM TPP, 5 mM MgCl2, 1 mM DTT, 50 mM NaCl, 0.05 mg/mL BSA, 200 μM NAD, 2.4 mM α-KG, 200 μM AcCoA, 0.1 units α-KGDH, 3.3% DMSO, and 10 μM inhibitor. Reactions took place at 25° C. Reactions were initiated with addition of 65 nM AANAT, and followed at 340 nm, as above. Percent inhibition values were compared to those with p300, which were repeated using the protocol given above. […]
(§2) HAT assays with yeast GCN5, SAS complex, MOZ, and Rtt109/Vps75 complex used the direct radioactive assay described above. […] The amount of enzyme used in each assay was estimated by comparing Coomassie Blue staining of samples with bovine serum albumin standards, analyzed by SDS-PAGE. […] The rate of ^14C-incorporation into histone H3 was quantified by autoradiography. […]

For another data set, the target named is T2, Rtt109/Vps75 complex (Saccharomyces cerevisiae, UniProt Q07794).
T2 construct: made in house
The data set can be described thus: Rtt109 direct radioactive HAT assay. The conditions noted are these: 10 μM compound; read-out: Percent inhibition of acetyltransferase, Rtt109. It counts as biochemical. The protocol:
as §1, §2

In data set [3] the test system is histone H3 and H4 acetylation in C3H 10T1/2 mouse fibroblasts. Kind of data set: histone acetylation Western blot in mouse cells. It counts as cell-based. The conditions noted are these: 25 μM, 1-3 hours. The source says:
Histones in mammalian cells show characteristic rates of turnover of acetylation, with a majority showing slower rates and a very minor fraction showing very fast turnover. This latter fraction has been associated with gene activation, and is defined by rapid hyperacetylation in the presence of deacetylase inhibitors such as Trichostatin A (TSA). In addition to SDS gels (FIG. 9A), Acid-Urea gels (AU, FIG. 9B) were used, on which loss of a positive charge upon lysine acetylation retards migration, producing a ladder of bands corresponding to integral changes in acetylation.
C3H 10T1/2 mouse fibroblasts were grown in DMEM with 10% FCS at 37° C. with 5% CO2. Confluent cultures were rendered quiescent in DMEM with 0.5% FCS for 18-20 h prior to treatment. […] Antibodies were used at the following concentrations: total H3 (1:10000; ab7834; Abcam); H4K12ac (1:2500; 06-761; Upstate). Rabbit anti-H3K9ac (1:10000) antibodies were generated in-house. Histones were isolated from cells by acid extraction, separated by SDS and acid-urea polyacrylamide gel electrophoresis and analyzed by Western blotting.
A general note: A western blot detects proteins with antibodies after separation by electrophoresis.

T1 sequence (P40963 whole entry): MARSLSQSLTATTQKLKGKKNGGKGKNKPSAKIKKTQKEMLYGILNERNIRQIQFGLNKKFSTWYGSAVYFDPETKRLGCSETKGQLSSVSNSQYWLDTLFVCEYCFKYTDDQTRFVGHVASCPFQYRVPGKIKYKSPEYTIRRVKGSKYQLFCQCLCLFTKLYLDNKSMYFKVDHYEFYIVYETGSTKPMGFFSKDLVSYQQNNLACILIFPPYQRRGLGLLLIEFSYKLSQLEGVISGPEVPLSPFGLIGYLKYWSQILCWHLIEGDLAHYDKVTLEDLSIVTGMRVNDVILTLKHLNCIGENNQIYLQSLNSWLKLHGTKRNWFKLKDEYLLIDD
T1 sequence (Q04003 whole entry partner): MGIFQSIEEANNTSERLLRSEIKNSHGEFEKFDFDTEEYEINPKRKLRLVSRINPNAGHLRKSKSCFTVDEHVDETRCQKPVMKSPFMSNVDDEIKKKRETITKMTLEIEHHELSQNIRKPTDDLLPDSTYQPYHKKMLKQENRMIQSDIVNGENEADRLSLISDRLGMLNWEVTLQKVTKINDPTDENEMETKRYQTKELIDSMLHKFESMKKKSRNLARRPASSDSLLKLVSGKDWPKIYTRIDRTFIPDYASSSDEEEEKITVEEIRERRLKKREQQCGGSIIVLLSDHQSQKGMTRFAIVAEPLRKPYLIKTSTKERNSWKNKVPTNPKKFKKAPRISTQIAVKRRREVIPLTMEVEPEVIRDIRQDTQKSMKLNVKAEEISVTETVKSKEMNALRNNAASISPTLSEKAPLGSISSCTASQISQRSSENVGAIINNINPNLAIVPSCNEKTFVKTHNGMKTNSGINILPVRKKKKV
T1 sequence (Q99314 whole entry partner): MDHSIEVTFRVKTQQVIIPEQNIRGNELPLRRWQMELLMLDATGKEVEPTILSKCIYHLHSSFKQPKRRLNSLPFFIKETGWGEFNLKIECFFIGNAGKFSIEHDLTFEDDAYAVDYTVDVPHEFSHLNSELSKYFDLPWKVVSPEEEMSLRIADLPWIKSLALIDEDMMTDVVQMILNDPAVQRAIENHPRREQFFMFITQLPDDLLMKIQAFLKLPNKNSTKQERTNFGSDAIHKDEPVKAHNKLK
T2 sequence (Q07794 whole entry): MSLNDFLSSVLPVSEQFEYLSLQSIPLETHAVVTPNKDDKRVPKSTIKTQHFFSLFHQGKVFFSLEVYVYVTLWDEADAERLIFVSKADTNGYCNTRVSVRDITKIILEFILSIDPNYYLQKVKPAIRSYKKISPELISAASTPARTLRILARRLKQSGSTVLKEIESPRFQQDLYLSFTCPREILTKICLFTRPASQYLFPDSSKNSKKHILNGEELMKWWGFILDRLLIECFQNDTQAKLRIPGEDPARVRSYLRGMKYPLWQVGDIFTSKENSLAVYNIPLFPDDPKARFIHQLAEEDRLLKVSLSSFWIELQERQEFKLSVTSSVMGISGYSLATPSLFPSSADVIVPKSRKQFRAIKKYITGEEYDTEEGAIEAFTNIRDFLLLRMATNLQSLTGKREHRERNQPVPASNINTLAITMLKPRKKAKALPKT
T2 sequence (P53853 whole entry partner): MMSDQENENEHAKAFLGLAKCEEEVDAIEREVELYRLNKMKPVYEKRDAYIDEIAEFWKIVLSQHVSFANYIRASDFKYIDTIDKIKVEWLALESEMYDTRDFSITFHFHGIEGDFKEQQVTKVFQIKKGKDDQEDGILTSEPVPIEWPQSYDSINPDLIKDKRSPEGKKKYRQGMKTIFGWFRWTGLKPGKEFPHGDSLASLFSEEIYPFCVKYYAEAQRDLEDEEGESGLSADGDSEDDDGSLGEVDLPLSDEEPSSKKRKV

Turning to `CC1=NN(c2ccc(C(=O)O)cc2)C(=O)C1=Cc1ccc(-c2cc(C)c(C)cc2[N+](=O)[O-])o1` [Compound C646, 4-(4,5-dihydro-3-methyl-4-((5-(4,5-dimethyl-2-nitrophenyl)furan-2-yl)methylene)-5-oxopyrazol-1-yl)benzoic acid], the 3H-thymidine incorporation entry in data set [1] was “capable of reducing ^3H-thymidine incorporation in several of these human cancer lines”. For the same compound, in data set [2], the “reaction with thiol (adduct formation)” value is given as “no evidence of reaction”. The inhibition at 10 µM at Sas2/4/5 complex and on Rtt109/Vps75 complex was less than 10% throughout. For the same compound, in data set [3], the “basal acetylation levels of H3 and H4” value is “slightly diminished”. In addition, the “TSA-inducible acetylation of histones H3 and H4” value in data set [3] (TSA 33 nM final 30 min) is on record as “virtually completely inhibited”.

The term inhibition denotes how much of the control response was suppressed.

(Values after patent publication US9005670B2, “Use of histone acetyltransferase inhibitors as novel anti-cancer therapies” (The Johns Hopkins University, priority 2010, dated 2015).)
